Measurements from PMC10965668, “Combined use of multiparametric high-content-screening and in vitro circadian reporter assays in neurotoxicity evaluation” (Archives of Toxicology, 2024).
Like-named read-outs stand apart in the source and are kept apart here. Marks after values point to notes of the source that are not given here.

How the values were obtained:
Type in all cases: cell-based, human
[1] = system: U87 MG/PER2-dLuc cells; assay: cells; details: 72 h treatment
Experimental: U87 MG/PER2-dLuc cells were subjected to the 3-(4, 5-dimethylthiazol-2-yl)-2, 5-diphenyl tetrazolium bromide (MTT) (M2128; Sigma-Aldrich) assay. […] Briefly, U87 MG/PER2-dLuc cells were seeded in 96-well plates at a density of 10^5 cells/mL, incubated for 48 h, and treated with relevant chemicals at various concentrations for 72 h. Subsequently, the media with chemicals were decanted and 20μl of MTT reagent solution (5 mg/ml) with 80μl of the media was added to all wells the plates and were incubated for 2 h until the formation of formazan crystals. The reagent solution was decanted, and 100μl of DMSO (D8418; Sigma-Aldrich) was added. Absorbance was measured at 570 nm using a spectrophotometer (Molecular Devices). The values of triplicate same-treatment wells were averaged.

[2] = system: U87 MG/PER2-dLuc cells; assay: in vitro cellular bioluminescence (PER2-dLuc circadian reporter) assay; details: for concentration that disrupted the cellular circadian rhythm: Fig. 3; for LOAEL Circadian disruption: U87 MG/PER2-dLuc cells, bioluminescence monitored 5 days; for effect on cellular circadian rhythm: at disrupting concentration: MPP + ≥ 30 µM, DDT 10 µM, PMX ≥ 30 µM, CPX ≥ 40 µM, CPF 1.5 µM
Experimental: U-87 MG (ATCC® HTB-14™) is a well-recognized human glioblastoma cell line widely used in the field of neuroscience. U87 MG cells have a regular and strong cellular circadian rhythm after transfection with a circadian gene (i.e., BMAL1) reporter vector (Jung et al. [2013]; Slat et al. [2017]). As described in our previous report (Fang et al. [2015], [2017]), U87 MG cells were transfected with a circadian reporter vector pGL [PER2P (Luc2P/Neo)] expressing destabilized firefly luciferase driven by the human PER2 promoter using FuGene HD™ transfection reagent (LightSwitch Genomics), and stably transfected cells were selected and cultured with 1000 μg/mL G418 (Invitrogen). The stably transfected cells were used to examine the cellular circadian rhythm using an in vitro cellular bioluminescence assay. U87 MG/PER2P-dLuc cells were cultured in Eagle’s minimum essential medium (EMEM) (11430030; Gibco) supplemented with 5% fetal bovine serum (FBS) (26140079; Gibco) and 1% penicillin/streptomycin (15140122; Gibco) at 37 °C in an atmosphere of 95% humidity and 5% CO2.
Briefly, cultured U87 MG/PER2 -dLuc cells were seeded in 35-mm dishes at 3 × 10^5 cells/dish and incubated until 70–80% confluency was reached. The cells were FBS-starved for three days at 70% confluency and then synchronized with 50% horse serum (16050122; Gibco) (Balsalobre et al. [1998]). After decanting and washing, recording medium (EMEM with 20% of growing medium containing 5% FBS, 6.5 mM sodium bicarbonate, 10 mM HEPES buffer [pH 7.2], 0.1 mM luciferin [E1602; Promega], and 50 U/mL penicillin and 50 µg/mL streptomycin) was added. Subsequently, the cells were treated with each compound. The 35-mm dishes were sealed with a sterile glass cover slide using silicon grease and subjected to continuous monitoring with a LumiCycle 32™ (Actimetrics) for 5 days. The analytical method was optimized according to the instruction manual of the LumiCycle Analysis Software (Actimetrics). Using this software, data were detrended (running average), and best fits to a sine wave were estimated using the Levenberg–Marquardt algorithm for period, phase, amplitude, and damping rate measurements, as previously reported (Chen et al. [2012]; Fang et al. [2015], [2017]).

[3] = system: U87 MG/PER2-dLuc cells; assay: multiparametric high-content screening (HCS) assay; details: for LOAEL CA (calcium ion): Fluo-4 AM; for LOAEL NC (nuclear size): Hoechst 33342; for LOAEL MMP (mitochondrial membrane potential): TMRM; for concentration that increased intracellular Ca2+ levels: 72-h timepoint; for lowest concentration with decrease in MMP / concentrations that decreased nuclear size: 24 h of treatment; for concentrations that decreased nuclear size: p < 0.01, text; for LOAEL LP (lipid peroxidation): BODIPY 665/676
Experimental: A multiparametric analysis of compound toxicity at the level of individual cells was conducted using the HCS method established by Tolosa et al. ([2012]) to assess the liver toxicity of chemicals and drugs. Briefly, U87 MG/PER2-dLuc cells were seeded in 96-well plates specific for HCS at a density of 10^4 cells/well. […] Following these treatments, cells were treated with a mixture of Hoechst 33342 (Hoechst) (B2261; Sigma-Alrich) at 1.5 µg/mL to assess the nuclear size (NC), 75 ng/mL tetramethyl rhodamine methyl ester (TMRM) (T-668; Molecular Probes) as a mitochondrial membrane potential (MMP) sensor, 0.24 µM fluo-4 acetoxymethyl ester (Fluo-4 AM) (F14217; Molecular Probes) to detect intracellular calcium ions (Ca^2+), and 1.5 µg/mL of (E,E)-3,5-bis-(4-phenyl-1,3-butadienyl)-4,4-difluoro-4-bora-3a,4a-diaza-s-indacene (BODIPY 665/676) (b-3932; Molecular Probes) to evaluate lipid peroxidation. After incubation for 1 h, the cells were imaged using an IN Cell Analyzer 6000 (GE Healthcare Life Sciences) and analyzed using IN Cell Miner HCM. The data were analyzed with IN Cell Analyzer 6000 Analysis Software. Nuclear morphological alterations were assessed based on the Hoechst staining. The nucleus was defined as the main object detected using an edge detection algorithm. To separate individual cells, segmentation was applied. All measurements were restricted to live cells. Lipid peroxidation was detected based on BODIPY fluorescence intensity in the cytoplasm. The cellular MMP was defined as the TMRM fluorescence intensity in punctate cytosolic regions surrounding the nucleus. Fluo-4 intensity was used to measure changes in the cytosolic-free Ca^2+ concentration. An intensity algorithm with a fixed threshold was used to measure TMRM, Fluo-4, and BODIPY fluorescence. Each measurement was performed in individual cells. The values of triplicate same-treatment wells were averaged and normalized to the average value of vehicle control (0.1% DMSO-treated or naïve cells).
The values of triplicate same-treatment wells were averaged and normalized to the average value of the negative control group, and differences in parameters between concentrations were analyzed using one-way ANOVA followed by Duncan’s tests. A p-value < 0.05 was considered significant.

[4] = Homo sapiens, U-87 MG, no unit with values, axis Concentration[μM], read-out: IC50 (cell viability, MTT; Fig. 1)
[5] = Homo sapiens, U-87 MG, read-out: IC50 (MTT, Table 1)

Structure (SMILES)	IC15 (MTT, Table 1) [1]	IC50 ([1]; read-out: IC50 (MTT, Table 1))	concentration that disrupted the cellular circadian rhythm [2]	LOAEL Circadian disruption [2]	effect on cellular circadian rhythm [2]	LOAEL CA (calcium ion) ([3]; 24-h treatment)	LOAEL NC (nuclear size) ([3]; 24-h treatment)	LOAEL MMP (mitochondrial membrane potential) ([3]; 24-h treatment)	concentration that increased intracellular Ca2+ levels [3]	LOAEL CA (calcium ion) ([3]; 72-h treatment)	lowest concentration with decrease in MMP [3]	concentrations that decreased nuclear size [3]	LOAEL LP (lipid peroxidation) ([3]; 72-h treatment)	concentrations with increased lipid peroxidation ([3]; 72 h of treatment)	IC50 [1, 4]	IC50 [1, 5]	other results
Clc1ccc(C(c2ccc(Cl)cc2)C(Cl)(Cl)Cl)cc1 [DDT, 4,4′-dichlorodiphenyltrichloroethane]	18.3 µM	60 µM	10000 nM	10 µM	robust rhythm was gradually abolished	30** µM	120** µM	15 µM	> 470 nM	0.47** µM	15 µM	120000 nM					
[CH3][Hg][Cl] [MHg, methylmercury (II) chloride]	2.5 µM	3.9 µM	2000 nM				4** µM	0.5* µM	above 0.03 µM	0.031** µM	0.5 µM	4000 to 8000 nM	0.031** µM	above 0.031 µM			IC50 ([1]; read-out: IC50 (cell viability, MTT)): 3.97 µM; LOAEL LP (lipid peroxidation) ([3]; 24-h treatment): 8** µM; LOAEL NC (nuclear size) ([3]; 72-h treatment): 4** µM; concentration that significantly reduced lipid peroxidation levels ([3]; 24 h after treatment): 8000 nM; concentrations that changed nuclear size ([3]; 72 h of treatment, MHg biphasic changes, MPP + reduction): 2000 to 8000 nM
O=C(O)c1cn(C2CC2)c2cc(N3CCNCC3)c(F)cc2c1=O [CPX, ciprofloxacin]	19.8 µM		≥ 40000 nM	40 µM	increased the circadian rhythm			0.94** µM	> 940 nM	0.94** µM	0.94 µM		0.94** µM	> 940 nM	98.3 µM	98 µM	IC50 ([1]; Homo sapiens, U-87 MG, read-out: IC50 (cell viability, MTT)): 98.3 µM
CCOP(=S)(OCC)Oc1nc(Cl)c(Cl)cc1Cl [CPF, chlorpyrifos]	13.9 µM		1500 nM	1.5 µM	abolished the cellular circadian rhythm	1.41** µM		1.41** µM		0.7** µM	1.41 µM				43.7 µM	60 µM	concentrations that increased the intracellular Ca2+ level ([3]; both the 24- and 72-h timepoints): 700 to 45000 nM
